# Like-named read-outs stand apart in the source and are kept apart here.
# Assays:
# [1] = Acute intravenous toxicity of GdNa2 DTPA in mice (Example 7); assay type: in vivo, Swiss CF-1 albino mice
# Description: The acute intravenous toxicity of disodium (diethylenetriaminepentaacetato)gadolinium (III) (composition C of Example 1) was studied.
# A total of 16 Swiss CF-1 albino mice (8 male, 22.0-25.6 g; 8 female, 18.2-24.1 g) were used. Picric acid markings were used for individual identification.
# The protocol of Example 4 was used. Groups of 2-4 mice, with sexes equally represented, received single intravenous doses of the test substance according to the following schedule: […]
# [2] = Abdominal NMR imaging in rabbits (Example 11); assay type: in vivo
# Procedure: Two rabbits were anesthetized and abdominal NMR images were obtained in the General Electric NMR scanner. Rabbits then received intravenous doses of 0.3 ml/kg (0.5 mmol Gd(III)/kg) of the preparation of composition D of Example 1 (GdNa2 DTPA) and additional abdominal NMR images were made over a period of two hours after dosing.
# [3] = for Blood T1: before contrast 510
# [4] = 0.34 mmol Gd(III)/kg, 10 minutes
smiles,measurement,setting,value
"O=C([O-])CN(CCN(CC(=O)[O-])CC(=O)[O-])CCN(CC(=O)[O-])CC(=O)[O-].[Gd+3].[Na+].[Na+] [GdNa2 DTPA, disodium (diethylenetriaminepentaacetato)gadolinium (III)]",dose up to which no deaths were observed,"[1]; intravenous, mice",12000 mg/kg
same,acute intravenous toxicity profile (in words),[1]; mouse,relatively safe mouse acute intravenous toxicity profile
same,body weight (in words),"[1]; mouse, in vivo",slight reduction in body weight
same,respiratory distress,"[1]; mouse, in vivo",respiratory distress was observed
same,time until all mice appeared normal,"[1]; mouse, in vivo",≤ 6 h
same,"Mean T1, Blood","0.51 mmol/kg, 5 minutes",292 ms
same,"Mean T1, Blood","0.51 mmol/kg, 10 minutes",321 ms
same,"Mean T1, Blood","0.51 mmol/kg, 15 minutes",337 ms
same,"Mean tissue T1, Fat","0.51 mmol/kg, 15 minutes",61 ms
same,"Mean tissue T1, Heart","0.51 mmol/kg, 15 minutes",267 ms
same,"Mean tissue T1, Large Intestine","0.51 mmol/kg, 15 minutes",228 ms
same,"Mean tissue T1, Liver","0.51 mmol/kg, 15 minutes",172 ms
same,"Mean tissue T1, Lung","0.51 mmol/kg, 15 minutes",303 ms
same,"Mean tissue T1, Pancreas","0.51 mmol/kg, 15 minutes",172 ms
same,"Mean tissue T1, Renal Cortex","0.51 mmol/kg, 15 minutes",137 ms
same,"Mean tissue T1, Renal Medulla","0.51 mmol/kg, 15 minutes",130 ms
same,"Mean tissue T1, Skel. Muscle","0.51 mmol/kg, 15 minutes",217 ms
same,"Mean tissue T1, Small Intestine","0.51 mmol/kg, 15 minutes",224 ms
same,"Mean tissue T1, Spleen","0.51 mmol/kg, 15 minutes",257 ms
same,"Mean tissue T1, Stomach","0.51 mmol/kg, 15 minutes",219 ms
same,changes in T1 relative to changes in T2,"0.1, 0.3 and 1.0 ml/kg i.v.",generally greater than changes in T2 values
same,tissue and blood T1 and T2 values (in words),"0.1, 0.3 and 1.0 ml/kg i.v.",Dose-related changes in tissue and blood T1 and T2 values
same,tissues with the most profound effects on T1,"0.1, 0.3 and 1.0 ml/kg i.v.","blood and kidneys (both cortex and medulla) with large intestine, pancreas and stomach the next most sensitive"
same,Cardiovascular effects,"rabbit, in vivo, iv",minimal
same,renal medulla and renal cortex proton images,[2]; 0.3 ml/kg (0.5 mmol Gd(III)/kg) i.v.,Marked alteration
same,time of peak effects on renal images,[2]; 0.3 ml/kg i.v.,≤ 15 min
same,"T1, infarcted regions of heart muscle","[3]; 0.17 mmol Gd(III)/kg, 10 minutes",290 ms
same,"T1, normally perfused myocardial tissue","[3]; 0.17 mmol Gd(III)/kg, 10 minutes, untreated 330",180 ms
same,"average T1, infarcted tissue",[3]; 0.34 mmol Gd(III)/kg,230 ms
same,Blood T1,"[3]; 0.34 mmol Gd(III)/kg, 5 minutes",50 ms
same,"images of excised hearts, normal versus infarcted tissue",[3]; [4],marked differences between normal and infarcted tissues
same,Blood T1,[3]; [4],100 ms
same,"average T1, normally perfused myocardium","[3]; 0.34 mmol Gd(III)/kg, untreated 330",135 ms

# — patent US5407660A, “Diagnostic liposomal compositions for enhancing NMR imaging” (Mallinckrodt Medical, Inc., priority 1993, dated 1995)
